Where a name gives a salt, the structure may show the parent alone.
Assay: Storage stability of the crystalline form
Format: physicochemical
Source text: The compound of the formula (I) is generally micronized and formulated in pharmacy.

stability properties (even at high atmospheric humidity): very good stability properties | can be stored without any problem (storage time): > 2 years
SMILES: C[C@H](N)C(=O)N[C@@H](C)C(=O)OCCOc1ccc(-c2c(C#N)c(SCc3csc(-c4ccc(Cl)cc4)n3)nc(N3CCCC3)c2C#N)cc1 [2-{4-[2-({[2-(4-chlorophenyl)-1,3-thiazol-4-yl]methyl}sulphanyl)-3,5-dicyano-6-(pyrrolidin-1-yl)pyridin-4-yl]phenoxy}ethyl-L-alanyl L-alaninate monohydrochloride]
